In brackets after ≈: the same amount, converted by molar mass. Where two headings read alike, the source gives them in different places. *1 amine or outer side, *2 acyl side, *3 side chain or, on linkers, in order; H or OH if unused. Where a SMILES comes first, the peptide text is derived from it. Bridges are numbered along the chain shown (N, C = ends). [ ]: non-standard residue; d: D form. The star is where a group is joined. Phe(3,5-F2) = N[C@@H](Cc1cc(F)cc(F)c1)C(=O)O; NHPh(4-CF3) = FC(F)(F)c1ccc(N*)cc1; Heptenoyl(2E) = CCCC/C=C/C(=O)*; aThr = C[C@H](O)[C@H](N)C(=O)O; Pip = O=C(O)[C@@H]1CCCCN1; CO = O=C([*:1])[*:2]
How the values were obtained:
S. aureus ClpP (Sa-ClpP) = target: T1, S. aureus ClpP (Sa-ClpP) (Staphylococcus aureus, UniProt Q2G036); experiment: ClpP activation, casein-BODIPY digestion assay (first described method); type: biochemical
T1 construct: made in house; host or cells: E. coli BL21 (DE3)
Experimental: The compounds were assayed in a casein digestion assay in order to determine their effect on ClpP activation. Briefly, the assay was carried out using S. aureus ClpP (“Sa-ClpP”) overexpressed in E. coli BL21 (DE3) and purified in a two-step process. Purity of the protein was assessed through SDS PAGE analysis. EC50 evaluations were conducted in triplicate in a 20 μl assay format using a method adapted from Maurizi et al. (Methods Enzymol. (1994) 244:314-331.). Each well contained 10 μM saClpP, 25 μg/ml BODIPY FL casein (Invitrogen Corporation, San Diego, Calif.), and test compound in concentrations ranging between 0-100 μM in assay buffer (50 mM Tris pH 8, 200 mM KCl, and 1 mM TCEP). The reaction took place at 37° C. Fluorescence (excitation 485 nm; emission 528 nm) was measured in five minute intervals over a 45 min period using a BioTek HT fluorescence microplate reader (BioTek Instruments, Inc., Winooski, Vt.). Velocity of each reaction was calculated and data was fit to a dose response curve using GraphPad Prism® software (GraphPad Software, Inc., La Jolla, Calif.). EC50 is the effective concentration of compound which causes 50% activation of S. aureus ClpP in the foregoing BODIPY FL casein assay.

Sa-ClpP = target: T2, Sa-ClpP (Staphylococcus aureus, UniProt Q2G036); experiment: ADEP displacement fluorescence polarization assay; type: binding, S. aureus
T2 construct: made in house; host or cells: E. coli BL21 (DE3)
Method in brief: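 Displacement of TAMRA-labelled ADEP 2591 probe (50 nM) from 1 μM Sa-ClpP, pre-equilibrated 1 h in Tris·HCl pH 8.0 with 2% DMSO, then 120 min at room temperature with compound, triplicate. Polarization (mP) read ex 530/em 579 nm, normalised to 20 μM ADEP 2378 and DMSO controls; four-parameter fit.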

E. faecails ATCC 33186 = experiment: Minimal inhibitory concentration, microbroth dilution; type: cell-based; conditions: Enterococcus faecalis, ATCC33186, read-out: Minimal Inhibitory Concentration E. faecails ATCC 33186
Method in brief: (§1)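 MIC is recorded by eye as the lowest drug concentration that stops bacterial growth. Compound is serially diluted twofold in broth, starting at 200 μM final, and bacteria are added at roughly 10^5 cfu/mL. Incubation runs overnight at 37 °C under aerobic conditions, per CLSI guidance.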

S. pneumoniae DAW27 = experiment: as above; type: cell-based; conditions: Streptococcus pneumoniae, DAW27, read-out: Minimal Inhibitory Concentration S. pneumoniae DAW27
Method in brief: as §1

S. pneumoniae R6 = experiment: as above; type: cell-based
Method in brief: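 Twofold serial dilutions in broth per CLSI M7-A7 microbroth dilution, incubated aerobically overnight at 37° C. MIC read visually as lowest concentration preventing bacterial growth.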

S. aureus USA 300 ΔClpP = experiment: as above; type: cell-based, Staphylococcus aureus; conditions: ClpP inactivated strain
Method in brief: as §1

[1] = first described ClpP activation assay (**), 10 μM saClpP, 25 μg/ml BODIPY FL casein, 37° C., read-out: ClpP Activation EC50
[2] = 1 μM Sa-ClpP, 50 nM FP probe ADEP 2591, read-out: ADEP Displacement IC50
[3] = Streptococcus pneumoniae, R6, read-out: Minimal Inhibitory Concentration S. pneumoniae R6
[4] = Streptococcus pneumoniae, R6; read-out: Minimal Inhibitory Concentration S. pneumoniae R6

T2 sequence (Q2G036 whole entry): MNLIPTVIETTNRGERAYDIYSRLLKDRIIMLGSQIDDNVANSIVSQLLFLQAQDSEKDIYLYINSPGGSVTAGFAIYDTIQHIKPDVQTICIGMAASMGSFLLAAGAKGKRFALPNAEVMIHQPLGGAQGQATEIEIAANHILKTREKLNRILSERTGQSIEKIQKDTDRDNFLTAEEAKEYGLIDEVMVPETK
T1 sequence (Q2G036 whole entry): as above

| SMILES | EC50 (S. aureus ClpP (Sa-ClpP); [1]) [µM] | IC50 (Sa-ClpP; [2]) [µM] | MIC (E. faecails ATCC 33186) [µM] | MIC (S. pneumoniae DAW27) [µM] | MIC (S. pneumoniae R6; [3]) [µM] | Minimal Inhibitory Concentration S. aureus USA 300 ΔClpP (S. aureus USA 300 ΔClpP) [µM] | MIC (S. pneumoniae R6; [4]) [µM] | EC50 (S. aureus ClpP (Sa-ClpP)) [µM] | IC50 (Sa-ClpP) [µM] |
| --- | --- | --- | --- | --- | --- | --- | --- | --- | --- |
| C[C@@H]1C[C@H]2C(=O)OC[C@H](NC(=O)[C@H](Cc3ccccc3)NC(=O)Nc3ccc(N(C)C)cc3)C(=O)N3CCC[C@H]3C(=O)N3CCCC[C@H]3C(=O)N[C@@H](C)C(=O)N2C1 [Compound 5, (S)—N-((2R,6S,8aS,14aS,20S,23aS)-2,6-Dimethyl-5,8,14,19,23-Pentaoxooctadecahydro-1H,5H,14H,19H-Pyrido[2,1-1]Dipyrrolo[2,1-C:2′,1′-L][1]Oxa[4,7,10,13]Tetraazacyclohexadecin-20-Yl)-2-(3-(4-(Dimethylamino)Phenyl)Ureido)-3-Phenylpropanamide] | 1.3 ± 0.2 | 28 ± 2.3 | 0.78 (≈ 0.614 µg/mL) | 0.39 (≈ 0.307 µg/mL) | – | – | – | – | – |
| Cc1ccc(NC(=O)N[C@@H](Cc2ccccc2)C(=O)N[C@H]2COC(=O)[C@@H]3C[C@@H](C)CN3C(=O)[C@H](C)NC(=O)[C@@H]3CCCCN3C(=O)[C@@H]3CCCN3C2=O)cc1 [Compound 23, (S)—N-((2R,6S,8aS,14aS,20S,23aS)-2,6-Dimethyl-5,8,14,19,23-Pentaoxooctadecahydro-1H,5H,14H,19H-Pyrido[2,1-I]Dipyrrolo[2,1-C:2′,1′-L][1]Oxa[4,7,10,13]Tetraazacyclohexadecin-20-Yl)-3-Phenyl-2-(3-(P-Tolyl)Ureido)Propanamide] | 2.6 ± 0.4 | 7.1 ± 0.3 | < 0.2 | – | < 0.2 | – | – | – | – |
| CCCC/C=C/C(=O)N[C@@H](Cc1cc(F)cc(F)c1)C(=O)N[C@@H]1C(=O)N2CCC[C@H]2C(=O)N2CCCC[C@H]2C(=O)N[C@@H](C)C(=O)N2CCC[C@H]2C(=O)O[C@H]1C [ADEP 2719, reference compound] ({Heptenoyl(2E)}-[Phe(3,5-F2)][aThr]P[Pip]AP; ester 2-C) | – | 6.2 ± 0.3 | – | – | – | 500 | < 0.2 | – | – |
| C[C@@H]1NC(=O)[C@@H]2CCCCN2C(=O)[C@@H]2CCCN2C(=O)[C@@H](NC(=O)[C@H](Cc2cc(F)cc(F)c2)NC(=O)Nc2ccc3c(c2)OCO3)[C@H](C)OC(=O)[C@@H]2CCCN2C1=O [Compound 17, (S)-2-(3-(Benzo[D][1,3]Dioxol-5-Yl)Ureido)-3-(3,5-Difluorophenyl)-N-((6S,8aS,14aS,20S,21 S,23aS)-6,21-Dimethyl-5,8,14,19,23-Pentaoxooctadecahydro-1H,5H,14H,19H-Pyrido[2,1-I]Dipyrrolo[2,1-C:2′,1′-L][1]Oxa[4,7,10,13]Tetraazacyclohexadecin-20-Yl)Propanamide] | – | – | – | – | – | 200 | 0.8 (≈ 0.659 µg/mL) | 3.6 ± 0.6 | 7.2 ± 0.4 |
| C[C@H]1C[C@H]2C(=O)O[C@@H](C)[C@H](NC(=O)[C@H](Cc3cc(F)cc(F)c3)NC(=O)Nc3ccc4c(c3)OCO4)C(=O)N3CCC[C@H]3C(=O)N3CCCC[C@H]3C(=O)N[C@@H](C)C(=O)N2C1 [Compound 20, (S)-2-(3-(Benzo[D][1,3]Dioxol-5-Yl)Ureido)-3-(3,5-Difluorophenyl)-N-((2R,6S,8aS,14aS,20S,21 S,23aS)-2,6,21-Trimethyl-5,8,14,19,23-Pentaoxooctadecahydro-1H,5H,14H,19H-Pyrido[2,1-I]Dipyrrolo[2,1-C:2′,1′-L][1]Oxa[4,7,10,13]Tetraazacyclohexadecin-20-Yl)Propanamide] | – | – | – | – | – | 200 | < 0.1 | 1.6 ± 0.3 | 6 ± 0.3 |
| Cc1ccc(NC(=O)N[C@@H](Cc2cc(F)cc(F)c2)C(=O)N[C@H]2COC(=O)[C@@H]3C[C@@H](C)CN3C(=O)[C@H](C)NC(=O)[C@@H]3CCCCN3C(=O)[C@@H]3CCCN3C2=O)cc1 [Compound 24, (S)-3-(3,5-Difluorophenyl)-N-((2R,6S,8aS,14aS,20S,23aS)-2,6-Dimethyl-5,8,14,19,23-Pentaoxooctadecahydro-1H,5H,14H,19H-Pyrido[2,1-I]Dipyrrolo[2,1-C:2′,1′-L][1]Oxa[4,7,10,13]Tetraazacyclohexadecin-20-Yl)-2-(3-(P-Tolyl)Ureido)Propanamide] | 3.3 ± 0.2 | 8.6 ± 0.5 | – | – | – | – | – | – | – |
| C[C@@H]1C[C@H]2C(=O)OC[C@H](NC(=O)[C@H](Cc3ccccc3)NC(=O)Nc3ccccc3Cl)C(=O)N3CCC[C@H]3C(=O)N3CCCC[C@H]3C(=O)N[C@@H](C)C(=O)N2C1 [Compound 7, (S)-2-(3-(2-Chlorophenyl)Ureido)-N-((2R,6S,8aS,14aS,20S,23aS)-2,6-Dimethyl-5,8,14,19,23-Pentaoxooctadecahydro-1H,5H,14H,19H-Pyrido[2,1-I]Dipyrrolo[2,1-C:2′,1′-L][1]Oxa[4,7,10,13]Tetraazacyclohexadecin-20-Yl)-3-Phenylpropanamide] | 34.6 ± 6.8 | 130 ± 11.3 | 3.13 (≈ 2.44 µg/mL) | 0.78 (≈ 0.607 µg/mL) | – | – | – | – | – |
| Cc1ccc(NC(=O)N[C@@H](Cc2cc(F)cc(F)c2)C(=O)N[C@@H]2C(=O)N3CCC[C@H]3C(=O)N3CCCC[C@H]3C(=O)N[C@@H](C)C(=O)N3C[C@@H](C)C[C@H]3C(=O)O[C@H]2C)cc1 [Compound 18, (S)-3-(3,5-Difluorophenyl)-2-(3-(P-Tolyl)Ureido)-N-((2R,6S,8aS,14aS,20S,21S,23aS)-2,6,21-Trimethyl-5,8,14,19,23-Pentaoxooctadecahydro-1H,5H,14H,19H-Pyrido[2,1-I]Dipyrrolo[2,1-C:2′,1′-L][1]Oxa[4,7,10,13]Tetraazacyclohexadecin-20-Yl)Propanamide] | 7 ± 0.9 | 5.6 ± 0.3 | 0.8 (≈ 0.646 µg/mL) | – | < 0.1 | 100 | – | – | – |
| C[C@@H]1NC(=O)[C@@H]2CCCCN2C(=O)[C@@H]2CCCN2C(=O)[C@@H](NC(=O)[C@H](Cc2cc(F)cc(F)c2)NC(=O)Nc2ccc(C(F)(F)F)cc2)[C@H](C)OC(=O)[C@@H]2CCCN2C1=O [Compound 16, (S)-3-(3,5-Difluorophenyl)-N-((6S,8aS,14aS,20S,21 S,23aS)-6,21-Dimethyl-5,8,14,19,23-Pentaoxooctadecahydro-1H,5H,14H,19H-Pyrido[2,1-I]Dipyrrolo[2,1-C:2′,1′-L][1]Oxa[4,7,10,13]Tetraazacyclohexadecin-20-Yl)-2-(3-(4-(Trifluoromethyl)Phenyl)Ureido)Propanamide] ({NHPh(4-CF3)-CO}-[Phe(3,5-F2)][aThr]P[Pip]AP; ester 2-C) | 4.4 ± 0.7 | 8.3 ± 0.6 | < 0.1 | – | 0.8 (≈ 0.678 µg/mL) | 3.1 | – | – | – |
| Cc1ccc(NC(=O)N[C@@H](Cc2cc(F)cc(F)c2)C(=O)N[C@@H]2C(=O)N3CCC[C@H]3C(=O)N3CCCC[C@H]3C(=O)N[C@@H](C)C(=O)N3CCC[C@H]3C(=O)O[C@H]2C)cc1 [Compound 15, (S)-3-(3,5-Difluorophenyl)-N-((6S,8aS,14aS,20S,21 S,23aS)-6,21-Dimethyl-5,8,14,19,23-Pentaoxooctadecahydro-1H,5H,14H,19H-Pyrido[2,1-I]Dipyrrolo[2,1-C:2′,1′-L][1]Oxa[4,7,10,13]Tetraazacyclohexadecin-20-Yl)-2-(3-(P-Tolyl)Ureido)Propanamide] | 4.6 ± 0.9 | 8.4 ± 0.2 | 0.3 (≈ 0.238 µg/mL) | – | 0.3 (≈ 0.238 µg/mL) | 100 | – | – | – |
| C[C@H]1C[C@H]2C(=O)O[C@@H](C)[C@H](NC(=O)[C@H](Cc3cc(F)cc(F)c3)NC(=O)Nc3ccc(C(F)(F)F)cc3)C(=O)N3CCC[C@H]3C(=O)N3CCCC[C@H]3C(=O)N[C@@H](C)C(=O)N2C1 [Compound 19, (S)-3-(3,5-Difluorophenyl)-2-(3-(4-(Trifluoromethyl)Phenyl)Ureido)-N-((2R,6S,8aS,14aS,20S,21S,23aS)-2,6,21-Trimethyl-5,8,14,19,23-Pentaoxooctadecahydro-1H,5H,14H,19H-Pyrido[2,1-I]Dipyrrolo[2,1-C:2′,1′-L][1]Oxa[4,7,10,13]Tetraazacyclohexadecin-20-Yl)Propanamide] | 3.2 ± 0.1 | 5.7 ± 0.3 | 0.39 (≈ 0.336 µg/mL) | – | 0.8 (≈ 0.689 µg/mL) | 6.2 | – | – | – |
